Test results taken from patent US5091403A, “Sulfinyl imidazole derivatives and antiulcer agents containing the same” (Nippon Chemiphar Co., Ltd., priority 1989, dated 1992).
Where two headings read alike, the source gives them in different places.

Key:
H^+ +K^+ ATPase [1] = molecular target: T1, H^+ +K^+ ATPase (Oryctolagus cuniculus, UniProt P27112); assay: H^+ +K^+ ATPase Inhibitory Effects (Test 2); format: biochemical, rabbit; conditions: read-out: H^+ + K^+ ATPase inhibitory action IC50
T1 construct: a rabbit gastric mucosa were isolated; from tissue; host or cells: rabbit gastric mucosa; vesicles from a discontinuous Ficoll gradient
Protocol: (§1) Following the method of Forte et al (J. Applied Physiol., 32, 714.717 (1972)), a rabbit gastric mucosa were isolated. A vesicle containing H^+ +K^+ ATPase was prepared by centrifuging the cells in Ficoll of discontinuous density gradient according to G. Saccomani et al (Biochim. Biophys. Acta, 465. 311-330 (1977)). After the enzyme was incubated at room temperature for 25 min. in 0.5 ml of a solution which contained 5 mM of an imidazole buffer (pH 6.0) and 2 × 10^-4 M of 2-[2-(2-methoxyethylamino)benzylsulfinyl] imidazole (the compound of Example 1; the test compound), the mixture was heated to 37° C. The mixture was then allowed to stand for further 5 min. To the mixture was added 0.5 ml of a solution which contained 4 mM of magnesium chloride, 80 mM of an imidazole buffer (pH 7.4), 20 mM of potassium chloride and 4 mM of ATP. The resulting mixture was reacted at 37° C. for 15 min. and 1 ml of 24 % trichloroacetic acid was then added to terminate the reaction. The inorganic phosphorus liberated was quantitatively determined by the method proposed by Taussky and Shorr (J. Biol. Chem., 202, 675-685 (1953)).
(§2) The above procedure was repeated except for not using potassium chloride to determine […] in the absence of potassium chloride. The desired K^+ -dependent ATPase activity was calculated by subtracting the ATPase activity value determined in the absence of KCl from the ATPase activity value determined in the presence of KCl.
the enzyme was prepared in the same manner described in the above Test 1. After the enzyme was incubated at room temperature for 25 min. in 0.5 ml of a solution which contained 5 mM of an imidazole buffer (pH 6.0 or pH 7.4) and various concentrations of test compound, the mixture was heated to 37° C. The mixture was then allowed to stand for further 5 min. The value of H^+ +K^+ ATPase inhibitory action of each test compound was determined int he same manner described in the above Test 1.

[2] = tested on: secretion of gastric acid; assay: Inhibitory action against the secretion of gastric acid (Test II), Heidenhain pouch dogs, histamine, intravenous; format: in vivo, dog (male beagle); conditions: 3 mg/kg, intravenously, one hour after initiation of histamine; 30 min post-drug vs pre-drug
Protocol: (§3) Heidenhain pouch dogs produced from male beagle dogs were fasted. To the dogs were then administered intra venously histamine hydrochloride (gastric juice secretion inducing agent) continuously at a dose of 160 μg/kg/hr. The gastric juice was collected at an interval of 15 min. to measure the amount of gastric juice and acid output to determine an acid secretion amount (mEq/15 min).
The test compound was intravenously administered to the dogs at one hour after the initiation of histamine ad ministration.
The inhibitory action was determined by comparing the acid secretion amount between pre-drug value (just before drug administration) and post-drug value (30 min. after drug administration).

H^+ +K^+ ATPase [3] = molecular target: T1, H^+ +K^+ ATPase; assay: H^+ +K^+ ATPase Inhibitory Effects (Test 1); format: biochemical, rabbit; conditions: 2 × 10^-4 M test compound; incubation at pH 6.0, 25 min, room temperature; read-out: value of H^+ +K^+ ATPase inhibitory action
Protocol: as §1, with “The resulting mixture was reacted at 37° C. for 15 min. and 1 ml of 24 % trichloroacetic acid was then added to terminate the reaction.” left out
as §2

[4] = tested on: secretion of gastric acid; assay: Inhibitory action against the secretion of gastric acid (Test I), pylorus-ligated rats; format: in vivo, rat (male Donryu); conditions: intraduodenally, 4 hours, vs vehicle control
Protocol: Male Donryu rats having a body weight of 200 to 250 g were fasted (while allowing free access to water) for 24 hrs. in accordance with the conventional method [Shay, H. et al, Gastroenterology, 5, 43.61 (1945)]. Under ether anesthesia the pylorus was ligated and 2-[2-(2-methoxyethylamino)benzylsulfinyl] imidazole (the compound of Example 1; the test compound) was administered intraduodenally. Four hours later, each rat was killed and the stomach was removed to collect the gastric juice. The inhibitory action was determined by comparing the acid output which was determined by titration to pH 7.0 with 0.1.N sodium hydroxide by means of an automatic titrator, with the corresponding value of a control rat prepared in the same manner except that a vehicle alone was administered.

[5] = tested on: secretion of gastric acid; assay: Inhibitory action against the secretion of gastric acid (Test II, other experiment), Heidenhain pouch dogs, histamine, oral; format: in vivo, dog (male beagle); conditions: orally, 2 hours before initiation of histamine, vs vehicle control dog
Protocol: as §3
At the other experiment, the test compounds mere administrated orally 2 hours before the initiation of histamine administration, and the inhibitory action was determined by comparing the acid secretion amount wit the corresponding amount of a control dog prepared in the same manner except that a vehicle alone was administered.

Acute toxicity test = format: in vivo, rat (male SD); conditions: orally, observed for 2 days
Source text: Male SD rats having a body weight of about 190 g were orally administered with compound of Example 8. The rats were then observed for 2 days.

T1 sequence (P27112 whole entry): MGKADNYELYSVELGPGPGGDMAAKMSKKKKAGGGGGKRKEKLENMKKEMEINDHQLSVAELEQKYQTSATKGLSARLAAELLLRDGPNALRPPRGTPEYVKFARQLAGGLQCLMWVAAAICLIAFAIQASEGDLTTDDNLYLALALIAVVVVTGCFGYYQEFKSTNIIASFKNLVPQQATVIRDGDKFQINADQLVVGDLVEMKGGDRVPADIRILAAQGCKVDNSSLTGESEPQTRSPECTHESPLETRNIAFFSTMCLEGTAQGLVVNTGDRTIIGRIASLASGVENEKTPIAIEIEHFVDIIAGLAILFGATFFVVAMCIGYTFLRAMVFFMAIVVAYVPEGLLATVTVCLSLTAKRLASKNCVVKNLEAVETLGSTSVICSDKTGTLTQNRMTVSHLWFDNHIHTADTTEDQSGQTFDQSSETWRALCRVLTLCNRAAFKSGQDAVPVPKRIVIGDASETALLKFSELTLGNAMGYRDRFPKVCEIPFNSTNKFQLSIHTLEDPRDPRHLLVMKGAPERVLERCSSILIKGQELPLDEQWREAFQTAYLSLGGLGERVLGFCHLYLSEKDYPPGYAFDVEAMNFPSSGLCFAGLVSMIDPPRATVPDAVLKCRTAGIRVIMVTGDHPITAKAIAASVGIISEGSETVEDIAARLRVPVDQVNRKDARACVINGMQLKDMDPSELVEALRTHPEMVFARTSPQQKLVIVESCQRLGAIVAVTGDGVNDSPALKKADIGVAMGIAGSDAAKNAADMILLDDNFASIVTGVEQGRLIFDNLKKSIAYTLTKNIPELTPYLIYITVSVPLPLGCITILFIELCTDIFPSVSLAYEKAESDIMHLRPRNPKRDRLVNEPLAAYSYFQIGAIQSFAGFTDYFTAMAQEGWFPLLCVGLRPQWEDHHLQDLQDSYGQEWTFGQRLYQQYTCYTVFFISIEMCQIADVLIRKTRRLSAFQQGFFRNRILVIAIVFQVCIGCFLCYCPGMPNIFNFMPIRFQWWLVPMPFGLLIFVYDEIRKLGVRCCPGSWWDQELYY
T1 sequence (P18597 whole entry partner): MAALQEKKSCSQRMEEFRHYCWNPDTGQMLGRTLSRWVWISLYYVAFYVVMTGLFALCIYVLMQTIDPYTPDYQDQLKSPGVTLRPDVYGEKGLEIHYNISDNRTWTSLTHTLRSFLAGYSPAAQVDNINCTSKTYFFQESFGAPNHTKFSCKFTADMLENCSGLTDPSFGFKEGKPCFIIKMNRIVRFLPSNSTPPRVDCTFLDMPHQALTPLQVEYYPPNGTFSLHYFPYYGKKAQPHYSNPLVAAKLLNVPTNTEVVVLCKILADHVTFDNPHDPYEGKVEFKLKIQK

Row | Compound | IC50 (H^+ +K^+ ATPase [1]; pH 6.0) | IC50 (H^+ +K^+ ATPase [1]; pH 7.4) | Suppressive action (acid secretion amount) [2] | inhibition at 200 µM (H^+ +K^+ ATPase [3]) | inhibitory action (acid output) ([4]; 10 mg/kg) | inhibitory action (acid output) ([4]; 30 mg/kg) | Suppressive action (acid secretion amount) [5] | MLD (Acute toxicity test)
1 | CCOCCNc1ccccc1C[S+]([O-])c1ncc[nH]1 (stereo not shown) [Example 5, 2-[2-(2-ethoxyethylamino)benzylsulfinyl]imidazole] | 22 µM | 53 µM | 98% |  |  |  |  | 
2 | COCCNc1ccccc1C[S+]([O-])c1ncc[nH]1 (stereo not shown) [Example 1, 2-[2-(2-methoxyethylamino)benzylsulfinyl]imidazole] | 43 µM | 180 µM | 89% | 73.1% | 75.9% | 94.5% |  | 
3 | COCCCNc1ccccc1C[S+]([O-])c1ncc[nH]1 (stereo not shown) [Example 6, 2-[2-(3-methoxypropylamino)benzylsulfinyl]imidazole] | 13 µM | 60 µM | 92% |  |  |  |  | 
4 | COCCNc1ccc(C)cc1C[S+]([O-])c1ncc[nH]1 (stereo not shown) [Example 3, 2-[2-(2-methoxyethylamino)-5-methylbenzylsulfinyl]imidazole] | 25 µM | > 300 µM | 85% |  |  |  | 100% | 
5 | COCCNc1cccc(C)c1C[S+]([O-])c1ncc[nH]1 (stereo not shown) [Example 4, 2-[2-(2-methoxyethylamino)-6-methylbenzylsulfinyl]imidazole] | 4.4 µM | 26 µM | 89% |  |  |  |  | 
6 | CCOCCNc1ccc(C)cc1C[S+]([O-])c1ncc[nH]1 (stereo not shown) [Example 7, 2-[2-(2-ethoxyethylamino)-5-methylbenzylsulfinyl] imidazole] | 18 µM | 94 µM |  |  |  |  |  | 
7 | CC(C)OCCNc1ccccc1C[S+]([O-])c1ncc[nH]1 (stereo not shown) [Example 2, 2-[2-(2-isopropoxyethylamino)benzylsulfinyl]imidazole] | 46 µM | 190 µM | 97% |  |  |  |  | 
8 | COCCNc1cc(C)c(OC)c(C)c1C[S+]([O-])c1ncc[nH]1 (stereo not shown) [Example 8, 2-[4,6-dimethyl-5-methoxy-2-(2-methoxyethylamino)benzylsulfinyl]imidazole] | 0.46 µM | 11 µM |  |  |  |  | 100% | ≥ 1,000 mg/kg
